Earlier results in patent US8440172B2, “Stable soluble salts of phenylbenzimidazole sulfonic acid at PHS at or below 7.0” (Symrise AG, priority 2007, dated 2013).

Legend:
[1] = free acid, not neutralised

## O=S(=O)(O)c1ccc2nc(-c3ccccc3)[nH]c2c1 [phenylbenzimidazole sulfonic acid, 2-phenylbenzimidazole-5-sulfonic acid]
Johncock, Cosmetic & Toiletries Magazine 1999
  pH of cosmetic formulation needed to prevent the free acid from recrystallising: above 6.8
Cosmetic formulation, Johncock 1999
  pH at which crystal formation starts: 7.0
[1]
  solubility in water: 0.25 % w/w
